Values of other authors as cited in patent US20050113433A1, “Compositions of a phenyl acetic acid cyclooxygenase-2 selective inhibitor and a cholinergic agent for the treatment of reduced blood flow or trauma to the central nervous system” (Pharmacia Corporation, priority 2003, published 2005).

Details: administered to subjects following stroke

C[N+](C)(C)CCOP(=O)(O)OP(=O)(O)OC[C@H]1O[C@@H](n2ccc(N)nc2=O)[C@H](O)[C@@H]1O [citicoline]
behavioral parameters: improvement in behavioral parameters | infarction volume: decrease in infarction volume
